Measurements taken from paper PMC5773487, “Harnessing insulin- and leptin-induced oxidation of PTP1B for therapeutic development” (Nature Communications, 2018).
Entries after “also recorded” stand apart in the source; their conditions may differ.

What was measured:
reduced PTP1B = molecular target: T1, reduced PTP1B (Homo sapiens, UniProt P18031); assay: phosphatase activity of reduced PTP1B, DiFMUP substrate; format: biochemical
T1 construct: Purified PTP1B (1–321) (100 nM) was mixed with increasing concentrations of H2O2; 6xHis (C); made in house; host or cells: E. coli BL21 (DE3)-RIL
T1 sequence (P18031 1-321): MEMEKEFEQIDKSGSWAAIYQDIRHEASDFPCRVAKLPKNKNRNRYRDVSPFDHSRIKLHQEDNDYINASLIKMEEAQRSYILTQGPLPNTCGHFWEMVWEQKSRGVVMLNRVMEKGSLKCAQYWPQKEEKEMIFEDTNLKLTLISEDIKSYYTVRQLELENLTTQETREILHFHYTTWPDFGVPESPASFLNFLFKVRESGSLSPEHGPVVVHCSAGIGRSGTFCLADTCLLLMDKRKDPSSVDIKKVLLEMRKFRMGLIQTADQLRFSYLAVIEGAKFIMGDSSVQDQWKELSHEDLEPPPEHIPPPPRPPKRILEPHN
Description: Fig. 4 Identification and characterization of small molecules that mimic the effect of scFv45. a Reversibly oxidized PTP1B (PTP1B-OX) was generated by incubation with H2O2 in vitro, desalted, then assayed (20 nM) in the presence and absence of individual members of the LOPAC library. In the right panel, each dot represents an activity measurement. […] Data are representative of at least two independent experiments (n = 2). b Increasing concentration of sanguinarine was tested against reduced (circle) and oxidized (square) forms of PTP1B, using DiFMUP as substrate. c Increasing concentration of levamisole was tested against reduced (circle) and oxidized (square) PTP1B, using DiFMUP as substrate. d PTP1B-OX (200 nM) was incubated with sanguinarine (25 µM) for 5 min and the complex was diluted 100-fold and the activity was monitored for 120 min continuously. e PTP1B-OX (200 nM) was incubated with levamisole (40 µM) for 5 min and the complex was diluted 100-fold and the activity was monitored for 120 min continuously. f Increasing concentration of chelerythrine, an analog of sanguinarine, was tested against reduced (circle) and oxidized (square) forms of PTP1B, using DiFMUP as substrate. […] Individual data points represent the mean obtained from three separate experiments (n = 3; b–g)
Purified PTP1B (1–321) (100 nM) was mixed with increasing concentrations of H2O2 (0.05–100 mM) in phosphatase assay buffer (50 mM HEPES, pH 7.0, 100 mM NaCl, 0.1% BSA) at room temperature for 5 min. From this reaction mixture PTP1B (10 nM) was used to monitor phosphatase activity using DiFMUP as the substrate, with or without 5 mM TCEP. Activity of each sample was compared to that of the untreated PTP1B in the presence of 5 mM TCEP.

[1] = test system: insulin signaling in 293T cells; assay: insulin signaling in 293T cells (immunoblot); format: cell-based; conditions: for insulin-induced activation of AKT (pThr308) / insulin-induced phosphorylation of insulin receptor β-subunit (IR-β): 293T cells, compound 2 μM 1 h, insulin 25 nM
Description: To study the effect of chelerythrine and protopine on insulin signaling we used 293T cells (ATCC) and cultured in DMEM containing 10% FBS. For insulin signaling, cells were serum starved for 16 h and then treated with chelerythrine (2 µM) or protopine (2 µM) for 1 h. Following which, cells were treated with 25 nM insulin for various times (0, 5, 10, 20 min) at 37 °C. Cells were washed with PBS and lysed in de-gassed RIPA lysis buffer (25 mM HEPES pH 7.5, 150 mM NaCl, 0.25% Deoxychloate, 10% Glycerol, 25 mM NaF, 10 mM MgCl2, 1 mM EDTA, 1% Triton X-100, 0.5 mM PMSF, 10 mM Benzamidine, cOmplete protease inhibitor cocktail (Roche)). Soluble proteins were harvested by centrifugation at 13,000×g for 10 min at 4 °C and quantitated. Total proteins in the cell lysates were separated by SDS-PAGE and tyrosyl phosphorylation of the IR-β subunit and downstream AKT activation was monitored. To test the effect of suppressing H2O2 levels on the function of the compounds, catalase was ectopically expressed in cells for 24 h. Following which, the cells were treated with the compounds as mentioned above. […] Catalase expression was detected in the cell samples with a rabbit polyclonal antibody (Abcam, ab52477).
Mammalian expression plasmids used in this study were as follows: pCMV-FLAG and pCMV-FLAG-PTP1B (wt and -mut2). Empty vector, FLAG-PTP1B-wt, or FLAG-PTP1B-mut2 were transfected into 293T cells for 24 h, following which, cells were serum starved for 8 h and then treated with chelerythrine (2 µM) for 1 h. Subsequently, cells were treated with 10 nM insulin for various times (0, 10, 20 min) at 37 °C. Cells were washed with PBS and lysed in de-gassed RIPA lysis buffer (25 mM HEPES pH 7.5, 150 mM NaCl, 0.25% Deoxycholate, 10% Glycerol, 25 mM NaF, 10 mM MgCl2, 1 mM EDTA, 1% Triton X-100, 0.5 mM PMSF, 10 mM Benzamidine, cOmplete protease inhibitor cocktail (Roche)). Soluble proteins were harvested by centrifugation at 13,000×g for 10 min at 4 °C and quantitated. Total proteins in the cell lysates were separated by SDS-PAGE and tyrosyl phosphorylation of the IR-β subunit was analyzed by immunoblotting.

[2] = test system: leptin signaling in hepatic stellate cells; assay: leptin signaling in hepatic stellate cells (immunoblot); format: cell-based, human; conditions: for effect on JAK2 phosphorylation in presence of apocynin: NOX inhibitor apocynin; for leptin-induced tyrosine phosphorylation of JAK2: chelerythrine 0–5 μM or ectopic scFv45
Description: Human hepatic stellate cells (HSteCs; ScienCell research laboratories, CA) were cultured according to manufacturer’s instructions. Cells were seeded on poly-L-lysine coated dishes and maintained in Stellate Cell Medium (SteCM, Cat. #5301). When cells reached 70% confluency they were split for various experiments. To study leptin signaling, HSCs were incubated in serum-free DMEM for 24 h and then stimulated with varying concentration of leptin (0, 10, 25, 50, 100, and 200 ng ml^−1) for 15 min. To study the effect of chelerythrine and protopine, serum starved cells were incubated with the compounds at varying concentrations (0–5 µM) for 1 h prior to leptin stimulation. In some groups, cells were pre-incubated (60 min) with the NADPH oxidase inhibitor apocynin (100 nM), before stimulation with leptin.

| Molecule | inhibition of the reduced form of PTP1B (reduced PTP1B) | insulin-induced activation of AKT (pThr308) [1] | insulin-induced phosphorylation of insulin receptor β-subunit (IR-β) [1] | basal signaling in the absence of insulin or leptin [1] | stimulatory effect on IR-β phosphorylation and AKT activation upon catalase overexpression ([1]; 293T cells expressing catalase, 2 μM) | insulin signaling in cells expressing PTP1B-mut2 ([1]; 293T, 2 μM, insulin 10 nM) | insulin signaling in control and PTP1B-wt expressing cells ([1]; 293T, 2 μM, insulin 10 nM) | observed cellular efficacy ([1]; reviewer's remark in peer review file) [µM] | effect on JAK2 phosphorylation in presence of apocynin [2] | leptin-induced tyrosine phosphorylation of JAK2 [2] |
| --- | --- | --- | --- | --- | --- | --- | --- | --- | --- | --- |
| CN1CCc2cc3c(cc2C(=O)Cc2ccc4c(c2C1)OCO4)OCO3 [protopine] | did not inhibit; also recorded: ineffective | no significant effect | no significant effect |  |  |  |  |  |  |  |
| COc1ccc2c(c[n+](C)c3c4cc5c(cc4ccc23)OCO5)c1OC [chelerythrine] | no apparent inhibition; also recorded: did not inhibit | enhanced | enhanced and sustained phosphorylation | no impact | ablated | insensitive | elevated insulin signaling | < 2 | attenuated | dose-dependent increase |
| scFv45: recombinant conformation-sensor single-chain variable fragment antibody recognizing oxidized PTP1B (antibody, V domains shown) VH: TVTLDESGGGLQAPGGALSLVCKASGFTFSSYDMGWIRQAPGKGLEYVAGITDNGRYASYGSAVDGRATISRDNGQSSVRLQLNNLRAEDTGTYYCARDDGSGWTGNSIDAWGHGTEVIVSE VL: ALTQPSSVSANPGGTVKITCSGSSSAYGYGWYQQKSPGSAPVTVIYNNNKRPSNIPSRFSGSKSGSTGTLTITGVQAEDEAVYFCGSEDSSTDAIFGAGTTLTVL |  |  |  |  |  |  |  |  | abrogated | enhanced phosphorylation of JAK2 |
